{"source": "patent US10765621B2", "about": "“Extracts of halimione portulacoides and their application” (Cutech Srl, priority 2013, dated 2020)", "key": {"IL-1α": {"test_system": "IL-1α", "assay": "IL-1α release by ex-vivo human skin stimulated with 2% SDS (ELISA)", "format": "cell-based", "procedure": "In order to study the biological activity of the extracts from Halimione on the inflammatory response of skin to irritation, the experimental protocol summarized below was adopted: Ex-vivo skin samples (7 mm in diameter) were cultivated for 24 hours in 6-well plates (4 skin samples/well) with 2.5 ml/well of modified Williams E medium.\nAfter 24 hours of culture the culture medium was renewed and the skin samples 2 to 6 received the irritant stimulus (2% SDS) through topical application of 4 μl of preparation on each skin sample. After 3 hours the stimulus was removed by means of cotton buds and then 4 μl of extract or dexamethasone were topically administered to the groups 3 to 6. Stimulus and lenitive treatments were diluted in 50% DMSO.\nAfter a further 24 hours of cultivation, the culture media were separately collected from each group and the released IL-1α quantified via ELISA (BioLegend ELISAMAX cat. n. 434905).\nTable 14 reports the average values of IL-1α obtained from the two medium samples (4 skin samples/well) collected for each experimental group."}, "hair follicles": {"test_system": "hair follicles", "settings": "usual response, indicative; cited from earlier work"}}}
{"compound": "C[C@@H]1C[C@H]2[C@@H]3CCC4=CC(=O)C=C[C@]4(C)[C@@]3(F)[C@@H](O)C[C@]2(C)[C@@]1(O)C(=O)CO", "note": "[Dexam., dexamethasone]", "values": [{"measurement": "IL-1α released in culture medium", "setting": "IL-1α; 2% SDS stimulus, then lenitive treatment 10 mM (positive control), 24 h", "result": 9.9, "unit": "pg/mL"}]}
{"compound": "CCCCCCCCCCCCOS(=O)(=O)[O-].[Na+]", "note": "[SDS]", "values": [{"measurement": "IL-1α released in culture medium", "setting": "IL-1α; 2% SDS stimulus without lenitive treatment (negative control), unstimulated control 1.3", "result": 14.8, "unit": "pg/mL"}]}
{"compound": "insulin", "values": [{"measurement": "Hair follicle growth increment produced by well-known stimulants / positive controls", "setting": "hair follicles", "result": 10, "unit": "%"}]}
